Columns and labels:
[1] = biological target: T1, GLP1R (Homo sapiens, UniProt P43220); set-up: Emax: dose or concentration left out as unconfirmed; settings: CHO-K1, […], read-out: β-arrestin recruitment Bmax (%)
Target sequence in this assay (P43220 24-463): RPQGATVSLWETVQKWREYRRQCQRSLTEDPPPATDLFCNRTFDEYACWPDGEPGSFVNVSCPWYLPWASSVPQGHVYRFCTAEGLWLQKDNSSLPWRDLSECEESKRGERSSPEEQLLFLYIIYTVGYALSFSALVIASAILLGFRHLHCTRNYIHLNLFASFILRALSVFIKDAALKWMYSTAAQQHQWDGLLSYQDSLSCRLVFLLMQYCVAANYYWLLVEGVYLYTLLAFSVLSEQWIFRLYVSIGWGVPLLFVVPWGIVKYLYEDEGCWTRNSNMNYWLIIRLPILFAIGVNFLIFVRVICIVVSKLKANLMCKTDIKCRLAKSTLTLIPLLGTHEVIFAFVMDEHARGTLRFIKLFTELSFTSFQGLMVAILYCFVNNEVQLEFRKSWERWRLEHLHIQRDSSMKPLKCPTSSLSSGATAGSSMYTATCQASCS
Target sequence in this assay (P32121 whole entry partner): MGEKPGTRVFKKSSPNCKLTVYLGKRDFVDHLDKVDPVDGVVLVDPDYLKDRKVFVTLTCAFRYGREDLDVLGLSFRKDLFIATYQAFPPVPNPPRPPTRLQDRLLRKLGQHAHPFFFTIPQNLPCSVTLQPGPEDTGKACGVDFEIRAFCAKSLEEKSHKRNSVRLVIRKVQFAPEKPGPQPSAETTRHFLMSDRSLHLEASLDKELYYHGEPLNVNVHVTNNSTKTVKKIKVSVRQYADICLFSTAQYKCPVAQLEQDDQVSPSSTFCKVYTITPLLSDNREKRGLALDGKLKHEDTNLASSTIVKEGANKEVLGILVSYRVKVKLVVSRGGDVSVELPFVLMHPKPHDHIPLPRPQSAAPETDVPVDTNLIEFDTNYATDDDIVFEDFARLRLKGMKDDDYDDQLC
Method: Frozen cells were quickly thawed and 10 mL of cell plating medium (provided by the kit) was added to thawed cells. Cells were stored in a 37° C. incubator under 5% CO2 and kept for approximately 48 hours until ready to run the assay.
Reference and test compounds were dissolved in 100% DMSO. […] 5 μL of this solution was added to 20 μL cell medium in assay plate for a final top concentration of 10 μM. Plates were then incubated at 37° C. under 5% CO2 for 90 min.
Following 90 min incubation, detection reagents were made up by combining 1 part Galacton Star Substrate with 5 parts Emerald II™ Solution, and 19 parts of PathHunter Cell Assay Buffer, respectively. 12.5 μl detection reagent was added to each well. The plates were then incubated at room temperature in dark for 60 min. Plates were then read on Envision for 0.1 sec/well.
Cells were plated at a density of 1000 or 2000 cells/20 μL/well. Frozen cells were quickly thawed and added to 10 mL of cell plating medium. Cells were stored in a 37 degree incubator under 5% CO2 and left for approximately 48 hours until ready to run the assay
Prepare 10× concentration of an agonist in serum free DMEM, and add all solutions into the compound plate. 2.5 μL of this solution was added to 20 μL cell medium in assay plate for a final top concentration of 10 μM. Plates were incubated at 37° C. under 5% CO2 for 30 min. An additional 2.5 μL of Buffer was added to the entire plate for agonist mode and incubated at 37° C. for another 90 min.
Following 90 min incubation, detection reagents were made up as described. 12.5 μL was added to all wells. The plates were then incubated at room temperature in dark for 60 min. Plates were then read on Envision for 0.1 sec/well.
Data analysis: GraphPad Prism 6 was used for establishment of progression curve. EC50s or IC50s were determined by 4-parameter logistic dose response equation.

[2] = biological target: T1, GLP1R; experiment: cAMP assay in CHO cells stably expressing hGLP-1R; assay type: cell-based; set-up: expressed in transfected cells; host or cells: CHO cells stably transfected; settings: CHO cells stably expressing hGLP-1R (Table 2), read-out: CHO cAMP stable EC50
Method: GLP-1R-mediated agonist activity was determined with a cell-based functional assay utilizing an HTRF (Homogeneous Time-Resolved Fluorescence) cAMP detection kit (cAMP Dynamic 2 Assay Kit; CisBio cat #62AM4PEC) that measures cAMP levels in the cell. The method is a competitive immunoassay between native cAMP produced by the cells and exogenous cAMP labeled with the dye d2. The tracer binding is visualized by a mAb anti-cAMP labeled with Cryptate. The specific signal (i.e., energy transfer) is inversely proportional to the concentration of cAMP in either standard or experimental sample.
Following the 30 minute incubation, 5 μL of labeled d2 cAMP and 5 μL of anti-cAMP antibody (both diluted 1:20 in cell lysis buffer; as described in the manufacturer's assay protocol) were added to each well of the assay plate. […] Raw data were converted to nM cAMP by interpolation from a cAMP standard curve (as described in the manufacturer's assay protocol) and the percent effect was determined relative to a saturating concentration of the full agonist GLP-17-37 (10 nM) included on each plate. EC50 determinations were made from agonist dose-response curves analyzed with a curve fitting program using a 4-parameter logistic dose response equation. […]
Target sequence in this assay (P43220 24-463): as the sequence (P43220 24-463) above

[3] = biological target: T1, GLP1R; experiment: GLP1R cAMP assay (HTRF), HEK293/GLP-1R/CRE/Luc, Clone 4
Target sequence in this assay (P43220 24-463): as above
Method: The human GLP-1R coding sequence (NCBI Reference Sequence NM_002062) was subcloned into pcDNA3.1+/Hygro vector (Invitrogen) and transfected into HEK293/CRE/Luc parental cell line. A cell line stably expressing the receptor was isolated.
Varying concentrations of each compound to be tested (in DMSO) were diluted in DMSO to obtain 200× compound working solution first and then 50 nl compounds were added to a white 384-well assay plate (Greiner 784075) with ECHO. The final DMSO concentration was 0.5%.
Cells were removed from cryopreservation, re-suspended in 5 mL of Dulbecco's Phosphate Buffered Saline (DPBS-Sigma Cat #D8537) and centrifuged at 900×g for 5 min at 22° C. The cell pellet was then re-suspended in 1 mL of assay buffer [DPBS with 500 μM IBMX (Sigma #15879) and 0.1% BSA (Sigma #A1933). IBMX and BSA were freshly added on the day of assay]. A 10 μL sample of the cell suspension was counted on an Invitrogen Countess II to determine cell viability and cell count per mL. The remaining cell suspension was then adjusted with assay buffer to deliver 1000 viable cells per well using a Matrix Combi Multidrop reagent dispenser. 10 μL cell suspensions were added to each well
of the assay plate which already contains compound. The plate was sealed and incubated at 37° C. with 5% CO2 for 30 minutes.
Following the 30 minute incubation, 5 μL of labeled d2 cAMP and 5 μL of anti-cAMP antibody (both diluted 1:20 in cell lysis buffer; as described in the manufacturer's assay protocol) were added to each well of the assay plate. The plates were then incubated at room temperature and after 60 minutes, changes in the HTRF signal were read with an Envision multi-label plate reader using excitation of 330 nm and emissions of 615 and 665 nm. Raw data were converted to nM cAMP by interpolation from a cAMP standard curve (as described in the manufacturer's assay protocol) and the percent effect was determined relative to a saturating concentration of the full agonist GLP-17-37 (10 nM) included on each plate. EC50 determinations were made from agonist dose-response curves analyzed with a curve fitting program using a 4-parameter logistic dose response equation.

[4] = biological target: T1, GLP1R; experiment: β-Arrestin-mediated GLP1R internalization assay (PathHunter U2OS cells); assay type: cell-based; set-up: host or cells: PathHunter engineered U2OS cells; settings: averaged Bmax where applicable, Percentage of Control GLP-1 (7-37), top 10 μM, 180 min
Excerpt: A similar assay can also be used to assess the extent of signal attenuation due to GLP-1R internalization (the Internalization Assay). In this assay, activated GLP1R Internalization cells were engineered to co-express an untagged GLP1R, Enzyme Acceptor (EA) tagged β-Arrestin, and a ProLink™ (PK) tag localized to the endosomes. Activation of the GLP1R induces β-Arrestin recruitment, which leads to internalization of the Receptor/Arrestin-EA complex in PK-tagged endosomes. This forces complementation of the two β-galactosidase enzyme fragments (EA and PK) to form a functional enzyme that hydrolyzes substrate to generate a chemiluminescent signal.
Frozen cells were quickly thawed and 10 mL of cell plating medium (provided by the kit) was added to thawed cells. Cells were stored in a 37° C. incubator and kept for approximately 48 hours until ready for the assay.
Reference and test compounds were dissolved in 100% DMSO. […] 5 μL of this solution was added to 20 μL cell medium in assay plate for a final top concentration of 10 μM. Plates were incubated at 37° C. for 180 min.
Following 180 min incubation, detection reagents were made up by combining 1 part Galacton Star Substrate with 5 parts Emerald II™ Solution, and 19 parts of PathHunter Cell Assay Buffer, respectively. 12.5 μL detection reagent was added to each well. The plates were then incubated at room temperature for 60 min. Plates were then read on Envision for 0.1 sec/well.
EC50 determinations were made from agonist dose-response curves analyzed with a curve fitting program using a 4-parameter logistic dose response equation.
Target sequence in this assay (P43220 24-463): as above
Target sequence in this assay (P32121 whole entry partner): as the sequence (P32121 whole entry partner) above

| Emax [1] [%] | EC50 [2] [nM] | EC50 [3] [nM] | β-arrestin internalization Bmax (POC) [4] [POC] | Compound |
| --- | --- | --- | --- | --- |
| 18.9 | < 15 | < 15 | – | N#Cc1ccc(COc2nc(-c3ccc(Cc4nc5ccc(C(=O)O)nc5n4C[C@@H]4CCO4)c(F)c3)ncc2F)c(F)c1 [Compound 263, (S)-2-(4-(4-(4-cyano-2-fluorobenzyloxy)-5-fluoropyrimidin-2-yl)-2-fluorobenzyl)-3-(oxetan-2-ylmethyl)-3H-imidazo[4,5-b]pyridine-5-carboxylic acid] |
| – | < 15 | < 15 | – | N#Cc1ccc(COc2cccc(-c3cc(F)c(Cc4nc5ccc(C(=O)O)nc5n4C[C@@H]4CCO4)cc3F)n2)nc1 [Compound 279, (S)-2-(4-(6-((5-cyanopyridin-2-yl)methoxy)pyridin-2-yl)-2,5-difluorobenzyl)-3-(oxetan-2-ylmethyl)-3H-imidazo[4,5-b]pyridine-5-carboxylic acid] |
| – | 15 to 150 | < 15 | – | N#Cc1ccc(COc2nc(-c3cc(F)c(Cc4nc5ccc(C(=O)O)nc5n4C[C@@H]4CCO4)cc3F)ncc2F)nc1 [Compound 280, (S)-2-(4-(4-((5-cyanopyridin-2-yl)methoxy)-5-fluoropyrimidin-2-yl)-2,5-difluorobenzyl)-3-(oxetan-2-ylmethyl)-3H-imidazo[4,5-b]pyridine-5-carboxylic acid] |
| – | 15 to 150 | – | – | O=C(O)c1ccc2nc(Cc3ccc(-c4cccc(OCc5ccc(Cl)cc5F)n4)cc3F)n(C[C@@H]3CCO3)c2n1 [Compound 287, (S)-2-(4-(6-((4-chloro-2-fluorobenzyl)oxy)pyridin-2-yl)-2-fluorobenzyl)-3-(oxetan-2-ylmethyl)-3H-imidazo[4,5-b]pyridine-5-carboxylic acid] |
| – | 15 to 150 | < 15 | – | N#Cc1ccc(COc2cccc(-c3ccc(Cc4nc5ccc(C(=O)O)nc5n4C[C@@H]4CCO4)c(F)c3)n2)nc1 [Compound 288, (S)-2-(4-(6-((5-cyanopyridin-2-yl)methoxy)pyridin-2-yl)-2-fluorobenzyl)-3-(oxetan-2-ylmethyl)-3H-imidazo[4,5-b]pyridine-5-carboxylic acid] |
| 29.4 ± 6.84 | – | < 15 | 22.8 ± 0.142 | N#Cc1ccc(COc2ncc(F)c(-c3ccc(Cc4nc5ccc(C(=O)O)nc5n4C[C@@H]4CCO4)c(F)c3)n2)c(F)c1 [Compound 291, (S)-2-(4-(2-((4-cyano-2-fluorobenzyl)oxy)-5-fluoropyrimidin-4-yl)-2-fluorobenzyl)-3-(oxetan-2-ylmethyl)-3H-imidazo[4,5-b]pyridine-5-carboxylic acid] |
| – | < 15 | < 15 | – | O=C(O)c1ccc2nc(Cc3cc(F)c(-c4cccc(OCc5ccc(Cl)cn5)n4)cc3F)n(C[C@@H]3CCO3)c2n1 [Compound 296, (S)-2-(4-(6-((5-chloropyridin-2-yl)methoxy)pyridin-2-yl)-2,5-difluorobenzyl)-3-(oxetan-2-ylmethyl)-3H-imidazo[4,5-b]pyridine-5-carboxylic acid] |
| – | 15 to 150 | < 15 | – | O=C(O)c1ccc2nc(Cc3cc(F)c(-c4cccc(OCc5ccc(F)cn5)n4)cc3F)n(C[C@@H]3CCO3)c2n1 [Compound 298, (S)-2-(2,5-difluoro-4-(6-((5-fluoropyridin-2-yl)methoxy)pyridin-2-yl)benzyl)-3-(oxetan-2-ylmethy)-3H-imidazo[4,5-b]pyridine-5-carboxylic acid] |
| – | 15 to 150 | < 15 | – | N#Cc1cnc(COc2nc(-c3ccc(Cc4nc5ccc(C(=O)O)nc5n4C[C@@H]4CCO4)c(F)c3)ncc2F)c(F)c1 [Compound 301, (S)-2-(4-(4-((5-cyano-3-fluoropyridin-2-yl)methoxy)-5-fluoropyrimidin-2-yl)-2-fluorobenzyl)-3-(oxetan-2-ylmethyl)-3H-imidazo[4,5-b]pyridine-5-carboxylic acid] |
| 46.8 ± 7.21 | – | < 15 | 33.8 ± 2.73 | N#Cc1ccc(COc2cccc(-c3ccc(Cc4nc5ccc(C(=O)O)c(F)c5n4C[C@@H]4CCO4)cc3F)n2)c(F)c1 [Compound 307, (S)-2-(4-(6-((4-cyano-2-fluorobenzyl)oxy)pyridin-2-yl)-3-fluorobenzyl)-7-fluoro-1-(oxetan-2-ylmethyl)-1H-benzo[d]imidazole-6-carboxylic acid] |
| 37.8 | < 15 | < 15 | – | N#Cc1ccc(COc2cccc(-c3ccc(Cc4nc5ccc(C(=O)O)c(F)c5n4C[C@@H]4CCO4)c(F)c3)n2)c(F)c1 [Compound 310, (S)-2-(4-(6-((4-cyano-2-fluorobenzyl)oxy)pyridin-2-yl)-2-fluorobenzyl)-7-fluoro-1-(oxetan-2-ylmethyl)-1H-benzo[d]imidazole-6-carboxylic acid] |

Second part, the compound before the results:

| Compound | Emax [1] [%] | EC50 [2] [nM] | EC50 [3] [nM] | β-arrestin internalization Bmax (POC) [4] [POC] |
| --- | --- | --- | --- | --- |
| N#Cc1ccc(COc2nc(-c3ccc(Cc4nc5ccc(C(=O)O)cc5n4C[C@@H]4CCO4)c(F)c3)ncc2F)c(F)c1 [Compound 266, (S)-2-(4-(4-((4-cyano-2-fluorobenzyl)oxy)-5-fluoropyrimidin-2-yl)-2-fluorobenzyl)-1-(oxetan-2-ylmethyl)-1H-benzo[d]imidazole-6-carboxylic acid] | 26.7 ± 4.76 | < 15 | < 15 | 19.9 ± 0.122 |
| O=C(O)c1ccc2nc(Cc3cc(F)c(-c4ncc(F)c(OCc5ncc(Cl)cc5F)n4)cc3F)n(C[C@@H]3CCO3)c2c1 [Compound 272, (S)-2-(4-(4-((5-chloro-3-fluoropyridin-2-yl)methoxy)-5-fluoropyrimidin-2-yl)-2,5-difluorobenzyl)-1-(oxetan-2-ylmethyl)-1H-benzo[d]imidazole-6-carboxylic acid] | – | 15 to 150 | < 15 | – |
| O=C(O)c1ccc2nc(Cc3ccc(-c4ncc(F)c(OCc5ncc(Cl)cc5F)n4)cc3F)n(C[C@@H]3CCO3)c2n1 [Compound 294, (S)-2-(4-(4-((5-chloro-3-fluoropyridin-2-yl)methoxy)-5-fluoropyrimidin-2-yl)-2-fluorobenzyl)-3-(oxetan-2-ylmethyl)-3H-imidazo[4,5-b]pyridine-5-carboxylic acid] | – | 15 to 150 | < 15 | – |
| O=C(O)c1ccc2nc(Cc3cc(F)c(-c4ncc(F)c(OCc5ccc(Cl)cn5)n4)cc3F)n(C[C@@H]3CCO3)c2n1 [Compound 300, (S)-2-(4-(4-((5-chloropyridin-2-yl)methoxy)-5-fluoropyrimidin-2-yl)-2,5-difluorobenzyl)-3-(oxetan-2-ylmethyl)-3H-imidazo[4,5-b]pyridine-5-carboxylic acid] | – | 15 to 150 | < 15 | – |
| O=C(O)c1ccc2nc(Cc3ccc(-c4cccc(OCc5ccc(Cl)cc5F)n4)c(F)c3)n(C[C@@H]3CCO3)c2c1F [Compound 308, (S)-2-(4-(6-((4-chloro-2-fluorobenzyl)oxy)pyridin-2-yl)-3-fluorobenzyl)-7-fluoro-1-(oxetan-2-ylmethyl)-1H-benzo[d]imidazole-6-carboxylic acid] | 62.8 ± 4.09 | – | < 15 | 48.8 ± 6.11 |
| N#Cc1ccc(COc2cccc(-c3ccn(Cc4nc5ccc(C(=O)O)c(F)c5n4C[C@@H]4CCO4)c(=O)c3)n2)c(F)c1 [Compound 322, (S)-2-((6-((4-cyano-2-fluorobenzyl)oxy)-2′-oxo-[2,4′-bipyridin]-1′(2′H)-yl)methyl)-7-fluoro-1-(oxetan-2-ylmethyl)-1H-benzo[d]imidazole-6-carboxylic acid] | – | 15 to 150 | < 15 | – |
| O=C(O)c1ccc2nn(Cc3ccc(-c4cccc(OCc5ccc(Cl)cc5F)n4)cc3F)c(CC3CCO3)c2c1 (stereo not drawn) [Compound 326, 2-(4-(6-(4-chloro-2-fluorobenzyloxy)pyridin-2-yl)-2-fluorobenzyl)-3-(oxetan-2-ylmethyl)-2H-indazole-S-carboxylic acid] | – | > 1000 | 15 to 150 | – |

— US10954221B2, “GLP-1R agonists and uses thereof” (QILU REGOR THERAPEUTICS INC., priority 2019, dated 2021)
